Source: PubChem BioAssay (NCI)
Where “and” joins values, the source holds several entries; their conditions need not be identical. Equal entries are not always repeated.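 The compound was tested at five concentrations on cells cultured in 96-well plates, with a 48-hour exposure period. Abbreviation: GI50, concentration required for 50% inhibition of growth. Definition used: TGI = concentration required for complete inhibition of growth.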

Assays:
Assay in all cases: NCI tumour cell line growth inhibition, 48 h
786-0 renal = system: 786-0 renal
A549 NSCLC = system: A549 NSCLC
HOP-92 NSCLC = system: HOP-92 NSCLC
KM12 colon = system: KM12 colon
SF-539 CNS = system: SF-539 CNS
SW-620 colon = system: SW-620 colon
UACC-257 melanoma = system: UACC-257 melanoma
UO-31 renal = system: UO-31 renal
MCF7 breast = system: MCF7 breast
MDA-MB-231 breast = system: MDA-MB-231 breast

SMILES	TGI (786-0 renal)	TGI (A549 NSCLC)	TGI (HOP-92 NSCLC)	TGI (KM12 colon)	TGI (SF-539 CNS)	TGI (SW-620 colon) [µM]	TGI (UACC-257 melanoma) [µM]	TGI (UO-31 renal) [µM]	GI50 (786-0 renal) [µM]	GI50 (A549 NSCLC) [µM]	GI50 (KM12 colon) [µM]	GI50 (MCF7 breast) [µM]	TGI (MCF7 breast) [µM]	GI50 (MDA-MB-231 breast) [µM]	TGI (MDA-MB-231 breast) [µM]	GI50 (SF-539 CNS) [µM]	GI50 (SW-620 colon) [µM]	GI50 (UACC-257 melanoma) [µM]	GI50 (UO-31 renal) [µM]	GI50 (HOP-92 NSCLC)
Cc1ccccc1NC(=O)C(=O)CC(=O)C1CCOC1=O (stereo not given)	> 100 µM	> 100 µM	> 100 µM	> 100 µM	> 100 µM	> 100	> 100	> 100	–	–	–	–	–	–	–	–	–	–	–	–
CCOC(=O)C1=C(C)N(NC(=O)OC)C2(N)N(NC(=O)OC)C(C)=C(C(=O)OCC)C12C#N (stereo not given)	> 100 µM	> 100 µM	–	> 100 µM	> 100 µM	> 100	> 100	> 100	–	–	–	–	–	–	–	–	–	–	–	–
COc1cc2c(c(OC)c1OC)C(=O)c1c-2n(CCCN=[N+]=[N-])c(=O)c2cc([N+](=O)[O-])ccc12	> 100 µM	> 100 µM	–	> 100 µM	> 100 µM	> 100	> 100	> 100	41	> 100	> 100	27.2	> 100	35.8	> 100	39.2	> 100	> 100	69.7	–
Cc1cc(Cl)cc2c1NC(=O)C2(O)CC(=O)c1ccc(F)cc1 (stereo not given)	> 100 µM	81.1 µM	> 100 µM	> 100 µM	> 100 µM	> 100	> 100	> 100	–	–	–	–	–	–	–	–	–	–	–	–
CCCC(CCC)Oc1ccc(CCCC2=C(O)c3ccccc3C(=O)C2=O)cc1	16.8 µM	22.4 µM	–	22.3 µM	18.7 µM	17	43.1	13.8	4.11	4.11	6.18	4.32	15.2	12.3	28.9	5.43	4.61	7.07	2.69	–
Cc1cccc(Cl)c1NC(=O)c1cccc([N+](=O)[O-])c1O	> 100 µM	> 100 µM	69.6 µM	66 µM	85.2 µM	> 100	> 100	59.5	–	–	–	–	–	–	–	–	–	–	–	–
OCCSCC/C(=N\N=C(/CCSCCO)c1ccccc1)c1ccccc1	> 100 µM	> 100 µM	> 100 µM	> 100 µM	> 100 µM	> 100	> 100	> 100	–	–	–	–	–	–	–	–	–	–	–	–
O=C1c2ccccc2C(=O)c2sc(Nc3ccc(Cl)cc3)nc21	3.93 µM	24.6 µM	22.9 µM	5.03 µM	6.33 µM	3.31	3.28	6.35	–	–	–	–	–	1.17	7.38	–	–	–	–	10.3 µM
CCOC(=O)N1CCc2cc(OC)c(OC)cc2/C1=C/c1ccc(OC)c(OC)c1	> 100 µM	> 100 µM	> 100 µM	> 100 µM	> 100 µM	> 100	> 100	> 100	–	–	–	–	–	–	–	–	–	–	–	–
Cc1ccc(S(=O)(=O)N[C@@H](Cc2ccccc2)C(=O)CCl)cc1	27 µM	> 100 µM	12 µM	38 µM	5.68 µM	59.4	> 100	39	10.6	42.6	18.2	15.5	50.9	–	–	2.26	10.2	43.2	16.3	2.19 µM
O=C([CH-]C(=O)c1ccccc1)c1ccccc1.[CH3-].[CH3-].[CH3-].[Sn+4]	33.1 µM	> 100 µM	67.3 µM	> 100 µM	> 100 µM	26	60.8	40.4	10.2	17.1	18.1	–	–	–	–	21.7	12.3	22.2	12	27.8 µM
C=C(CN(C)Cc1ccccc1)c1ccc(C(=O)Nc2ccccc2N)cc1	27.3 µM	19.1 µM	24.5 µM	7.26 µM	12.1 µM	> 50	–	8.41	5.21	5.19	1.23	16.8	> 50	0.739	5.78	2.02	6.08	–	2.08	3.36 µM
O=C1[C@@H]2C(c3ccncc3)=NO[C@@H]2C(=O)N1c1ccc(Cc2ccc(N3C(=O)[C@H]4C(c5ccncc5)=NO[C@H]4C3=O)cc2)cc1	> 100 µM	> 100 µM	> 100 µM	> 100 µM	> 100 µM	> 100	> 100	> 100	–	–	–	–	–	–	–	–	–	–	–	–
Clc1ccc(-c2nc(C(Cl)Cl)nc3cc(-c4ccccc4)nn23)cc1	> 50 µM	2.34 µM	> 50 µM	2.89 µM	> 50 µM	> 50	–	> 50	> 50	0.875	0.884	1.47	> 50	1.8	> 50	2.34	1.01	–	2.04	1.25 µM
C/C(CC(=O)Nc1ccccc1)=N\NC(N)=S	> 100 µM	> 100 µM	> 100 µM	> 100 µM	> 100 µM	> 100	> 100	> 100	–	–	–	–	–	–	–	–	–	–	–	–
CCCCCCCC(=O)NS(=O)(=O)c1ccccc1	> 100 µM	> 100 µM	–	> 100 µM	> 100 µM	> 100	–	> 100	–	–	–	–	–	–	> 100	–	–	–	–	–
COC(=O)[C@@H]1[C@H](O)[C@H](C)[C@H](O)[C@H](C)/C=C\C=C(C)C(=O)Nc2c(C)c(OC(C)=O)c3c(c2O)C(=O)C(C)=C2OCOC(=C23)C(C)=C[C@@](C)(O)[C@H](O)[C@@H](C)[C@H]1OC(C)=O	> 100 µM	–	> 100 µM	> 100 µM	–	> 100	76.6	> 100	–	–	–	–	65.3	–	> 100	–	–	–	–	–
CC1(C)Cc2nnsc2C2=C1C(=O)CCS2	> 100 µM	> 100 µM	> 100 µM	> 100 µM	> 100 µM	> 100	> 100	> 100	–	–	–	–	–	–	–	–	–	–	–	–
CC(=O)Oc1ccccc1C(=O)NCCC[Se]C#N	4.38 µM	3.6 µM	3.05 µM	16.7 µM	3.87 µM	–	–	–	2.1	1.84	2.84	2.32	11.7	–	–	2.04	3.47	–	–	1.49 µM

SMILES	TGI (786-0 renal)	TGI (A549 NSCLC)	TGI (HOP-92 NSCLC)	TGI (KM12 colon)	TGI (SF-539 CNS)	TGI (SW-620 colon) [µM]	TGI (UACC-257 melanoma) [µM]	TGI (UO-31 renal) [µM]	GI50 (786-0 renal) [µM]	GI50 (A549 NSCLC) [µM]	GI50 (KM12 colon) [µM]	GI50 (MCF7 breast) [µM]	TGI (MCF7 breast) [µM]	GI50 (MDA-MB-231 breast) [µM]	TGI (MDA-MB-231 breast) [µM]	GI50 (SF-539 CNS) [µM]	GI50 (SW-620 colon) [µM]	GI50 (UACC-257 melanoma) [µM]	GI50 (UO-31 renal) [µM]	GI50 (HOP-92 NSCLC)
Cc1cccc(C)c1NC(=O)CCCC(=O)C(C#N)c1ccc(Cl)cc1 (stereo not given)	> 100 µM	> 100 µM	> 100 µM	> 100 µM	> 100 µM	> 100	> 100	> 100	–	–	–	–	–	–	–	–	–	–	–	–
NC1=NCC(c2ccccn2)C1c1ccc(F)cc1 (stereo not given)	> 100 µM	> 100 µM	> 100 µM	> 100 µM	> 100 µM	> 100	> 100	> 100	–	–	–	–	–	–	–	–	–	–	–	–
O=[N+]([O-])c1ccc2nc3ccscc-3c2c1	> 100 µM	89.9 µM	25.7 µM	83.6 µM	50.4 µM	> 100	> 100	> 100	–	–	–	–	–	–	–	–	–	–	–	–
COc1ccc(C2N3CCCCC3[C@@H]3c4[nH]c5ccccc5c4CCN23)c(OC)c1 (stereo not given in full)	> 100 µM	> 100 µM	> 100 µM	–	35.2 µM	> 100	72.4	74.1	–	–	–	–	–	–	–	–	–	–	–	–
Cc1cccc2cc3cccc(C(=O)NCCN(C)C)c3nc12	11.5 µM	–	1.38 µM	6.12 µM	1.61 µM	10.5	1.46	0.552	–	–	–	–	–	–	–	–	–	–	–	–
Cc1nnc2n1N=C(c1ccc(-c3ccc([N+](=O)[O-])cc3)o1)CS2	> 100 µM	> 100 µM	> 100 µM	> 100 µM	> 100 µM	> 100	> 100	> 100	–	–	–	–	–	–	–	–	–	–	–	–
C=C[Si](C)(C)COC(=O)/C(C#N)=C/C=C/c1ccccc1	> 100 µM	> 100 µM	> 100 µM	> 100 µM	> 100 µM	> 100	> 100	> 100	–	–	–	–	–	–	–	–	–	–	–	–
NC(=NCCO)c1ccc(N2CCCN(c3ccc(C(N)=NCCO)cc3)CC2)cc1	> 100 µM	> 100 µM	–	> 100 µM	–	–	> 100	–	> 100	98.3	> 100	–	–	> 100	> 100	–	–	> 100	–	–
CN(C)CCC(=O)N1CCc2c([nH]c3ccccc23)C1c1cccnc1 (stereo not given)	> 100 µM	> 100 µM	> 100 µM	> 100 µM	> 100 µM	> 100	> 100	> 100	–	–	–	–	–	–	–	–	–	–	–	–
CCCC(=O)O[C@]1(C)CC[C@@H]2[C@H]3[C@@H]1[C@@H]1C/C(C)=C\CC[C@](C)(OC(=O)[C@@H]2C)[C@H]3O1	> 100 µM	> 100 µM	–	> 100 µM	> 100 µM	> 100	> 100	65.6	72.6	40.1	32.8	29.1	> 100	25.5	94.4	> 100	40.6	43.3	23.6	–
NCCn1cnc2nc(NC(=O)c3ccccc3)[nH]c(=O)c21	> 100 µM	> 100 µM	> 100 µM	> 100 µM	> 100 µM	> 100	> 100	> 100	–	–	–	–	–	–	–	–	–	–	–	–
COc1cccc2c1C(=O)c1c(O)c3c(c(O)c1C2=O)C[C@@](O)(C(C)=O)C[C@@H]3OC1CC(O)C(O)C(C)O1 (stereo not given in full)	8.12 µM and 19.4 µM	6.31 µM and 10.4 µM	9.67 µM and 18.8 µM	9.61 µM and 12.2 µM	9.15 µM and 10.2 µM	35.5	–	10	–	–	–	0.153	> 94.4	–	> 100	–	–	–	–	–
C[CH2][Ge]([CH2]C)([CH2]C)[O]C(=O)C([O][Ge]([CH2]C)([CH2]C)[CH2]C)c1ccccc1 (stereo not given)	74.3 µM	56.4 µM	45.9 µM	26.1 µM	40.5 µM	42.2	58.4	28.7	22.4	12.7	11.9	–	–	–	–	17.1	18.9	15.2	13	4.32 µM
O=C(Nc1ccccc1[N+](=O)[O-])C(=O)C(C(=O)c1ccccc1-c1ccccc1)C1OC(=O)c2ccccc21 (stereo not given)	28.6 µM	72.6 µM	–	30.6 µM	29.2 µM	36.7	33	29.8	–	–	–	–	–	–	–	–	–	–	–	–
COC1C(O)CC(OC2CC(OC3CC(O[C@@H]4C(=O)c5c(cc6cc(OC7CC(OC8CC(O)C(O)C(C)O8)C(O)C(C)O7)c(C)c(O)c6c5O)C[C@H]4[C@H](OC)C(=O)[C@@H](O)[C@@H](C)O)OC(C)C3O)OC(C)C2O)OC1C (stereo not given in full)	> 100 µM	> 100 µM	1.06 µM	> 12 µM	0.0312 µM	> 100	0.931	0.15	–	–	–	–	–	–	> 100	–	–	–	–	–
C/C(=C1/N=C(c2ccccc2)OC1=O)c1ccccc1	> 100 µM	> 100 µM	> 100 µM	> 100 µM	> 100 µM	> 100	> 100	–	–	–	–	–	> 100	–	> 100	–	–	–	–	–
COc1cc(/C=C2\NC(=S)C3Cc4c(OC)c(C)c(OC)c(OC)c4C2N3C)c(OC)c(C)c1OC (stereo not given)	> 100 µM	> 100 µM	> 100 µM	> 100 µM	> 100 µM	> 100	> 100	> 100	–	–	–	–	–	–	–	–	–	–	–	–
CC(=O)OCC1OC(n2c(=S)n(-c3ccccc3)c(=O)c3cc(Br)ccc32)C(OC(C)=O)C(OC(C)=O)C1OC(C)=O (stereo not given)	> 100 µM	> 100 µM	> 100 µM	> 100 µM	> 100 µM	> 100	> 100	> 100	–	–	–	–	–	–	–	–	–	–	–	22.1 µM and > 100 µM
Cc1cc(Cl)ccc1N1C(=O)C(=O)C(c2nc3ccccc3o2)C(=O)C1=O	> 100 µM	> 100 µM	> 100 µM	> 100 µM	> 100 µM	> 100	> 100	> 100	–	–	–	–	–	–	–	–	–	–	–	–
